Patent publication US20170044104A1, “NEW PESTICIDAL COMPOUNDS AND USES” (BAYER CROPSCIENCE AG, priority 2013, published 2017)

How the values were obtained:
Cooperia curticei = Cooperia curticei (COOPCU) larval mortality assay; conditions: 120 h, application rate 20 ppm, after 5 days, read-out: activity (percentage of larval mortality)
Method: (§1) Solvent: dimethyl sulfoxide
(§2) To produce a suitable preparation of active compound, 10 mg of active compound are dissolved in 0.5 ml solvent, and the concentrate is diluted with “Ringer's solution” to the desired concentration.
Approximately 40 nematode larvae (Cooperia curticei) are transferred into a test tube containing the compound solution.
After 5 days percentage of larval mortality is recorded. 100% efficacy means all larvae are killed; 0% efficacy means no larvae are killed.

Meloidogyne incognita = Meloidogyne incognita (MELGIN) gall formation assay; type: in vivo; conditions: 336 h, read-out: nematicidal activity (percentage of gall formation)
Method: Solvent: 125.0 parts by weight of acetone
To produce a suitable preparation of active compound, 1 part by weight of active compound is mixed with the stated amount of solvent, and the concentrate is diluted with water to the desired concentration.
Vessels are filled with sand, a solution of the active ingredient, a suspension containing eggs and larvae of the southern root-knot nematode (Meloidogyne incognita) and salad seeds. The salad seeds germinate and the seedlings grow. Galls develop in the roots.
After 14 days the nematicidal activity is determined on the basis of the percentage of gall formation. 100% means no galls were found and 0% means the number of galls found on the roots of the treated plants was equal to that in untreated control plants.

[1] = system: Nippostrongylus brasiliensis; experiment: Nippostrongylus brasiliensis (NIPOBR) assay, acetylcholine esterase readout; conditions: 10 ppm (10 μg/ml), adult worms, read-out: activity (reduction of AChE compared to negative control)
Method: Adult Nippostrongylus brasiliensis were washed with saline buffer containing 100 U/ml penicillin, 0.1 mg/ml streptomycin and 2.5 μg/ml amphotericin B. Test compounds were dissolved in DMSO and worms were incubated in medium in a final concentration of 10 μg/ml (10 ppm). An aliquot of the medium was used to determine the acetylcholine esterase activity in comparison to a negative control. The principle of measuring acetylcholine esterase as readout for anthelmintic activity was described in Rapson et al (1986) and Rapson et al (1987).

Haemonchus contortus = Haemonchus contortus (HAEMCO) larval mortality assay; conditions: 120 h; for mortality at 20 ppm: application rate 20 ppm, after 5 days, read-out: activity (percentage of larval mortality); for Emax at 0.8 ppm / Emax at 4 ppm / Emax at 20 ppm: comparative test, 5 dat, read-out: % Efficacy
Method: as §1, §2
Approximately 40 larvae of the red stomach worm (Haemonchus contortus) are transferred into a test tube containing compound solution.
After 5 days percentage of larval mortality are recorded. 100% efficacy means all larvae are killed, 0% efficacy means no larvae are killed.

[2] = system: Dirofilaria immitis microfilariae; experiment: microbe, parasite or virus in culture; conditions: 72 h, read-out: EC50 (reduction of motility)

O=C(NCCc1ccc(-c2cccnc2Cl)cc1Cl)c1ccccc1C(F)(F)F [Example 1-48]
mortality at 20 ppm (Cooperia curticei): 100%
pest or weed control at 20 ppm (Meloidogyne incognita): 90%
inhibition at 10 ppm [1]: ≥ 60%
mortality at 20 ppm (Haemonchus contortus): 100%
Emax at 0.8 ppm (Haemonchus contortus): 80%
Emax at 4 ppm (Haemonchus contortus): 100%
Emax at 20 ppm (Haemonchus contortus): 100%

O=C(NCC(F)(F)c1ccc(-c2ccc(Cl)nc2)cc1Cl)c1ccccc1C(F)(F)F [Example 1-68]
mortality at 20 ppm (Cooperia curticei): 100%
pest or weed control at 20 ppm (Meloidogyne incognita): 90%
inhibition at 10 ppm [1]: ≥ 60%
mortality at 20 ppm (Haemonchus contortus): 100%

O=C(NCC(F)(F)c1ccc(-n2cc(C(F)(F)F)cn2)cc1Cl)c1ccccc1C(F)(F)F [Example 1-69, N-[2-[2-chloro-4-[4-(trifluoromethyl)pyrazol-1-yl]phenyl]-2,2-difluoro-ethyl]-2-(trifluoromethyl)benzamide]
mortality at 20 ppm (Cooperia curticei): 100%
pest or weed control at 20 ppm (Meloidogyne incognita): 100%
inhibition at 10 ppm [1]: ≥ 60%
mortality at 20 ppm (Haemonchus contortus): 100%
Emax at 0.8 ppm (Haemonchus contortus): 100%
Emax at 4 ppm (Haemonchus contortus): 100%
Emax at 20 ppm (Haemonchus contortus): 100%

O=C(NCC(F)c1ccc(-c2ccc(C(F)(F)F)nc2)cc1Cl)c1ccccc1C(F)(F)F (stereo not drawn) [Example 1-70]
mortality at 20 ppm (Cooperia curticei): 100%
pest or weed control at 20 ppm (Meloidogyne incognita): 100%
inhibition at 10 ppm [1]: ≥ 60%
mortality at 20 ppm (Haemonchus contortus): 90%
EC50 [2]: < 5 µg/mL

O=C(NCC(F)c1ccc(-c2ccc(Cl)nc2)cc1Cl)c1ccccc1C(F)(F)F (stereo not drawn) [Example 1-73, N-{2-[2-chloro-4-(6-chloropyridin-3-yl)phenyl]-2-fluoroethyl}-2-(trifluoromethyl) benzamide]
mortality at 20 ppm (Cooperia curticei): 100%
pest or weed control at 20 ppm (Meloidogyne incognita): 100%
inhibition at 10 ppm [1]: ≥ 60%
mortality at 20 ppm (Haemonchus contortus): 100%
EC50 [2]: < 5 µg/mL

O=C(NCC(F)c1ccc(-c2ccc(F)nc2)cc1Cl)c1ccccc1C(F)(F)F (stereo not drawn) [Example 1-74]
mortality at 20 ppm (Cooperia curticei): 100%
pest or weed control at 20 ppm (Meloidogyne incognita): 90%
inhibition at 10 ppm [1]: ≥ 60%
mortality at 20 ppm (Haemonchus contortus): 100%
Emax at 0.8 ppm (Haemonchus contortus): 100%
Emax at 4 ppm (Haemonchus contortus): 100%
Emax at 20 ppm (Haemonchus contortus): 100%
EC50 [2]: < 5 µg/mL

O=C(NCC(F)c1ccc(-c2cncc(Cl)c2)cc1Cl)c1ccccc1C(F)(F)F (stereo not drawn) [Example 1-77]
mortality at 20 ppm (Cooperia curticei): 100%
inhibition at 10 ppm [1]: ≥ 60%
mortality at 20 ppm (Haemonchus contortus): 100%
EC50 [2]: < 5 µg/mL

O=C(NCC(F)c1ccc(-c2ccnc(F)c2)cc1Cl)c1ccccc1C(F)(F)F (stereo not drawn) [Example 1-78]
mortality at 20 ppm (Cooperia curticei): 100%
inhibition at 10 ppm [1]: ≥ 60%
mortality at 20 ppm (Haemonchus contortus): 100%
EC50 [2]: < 5 µg/mL

O=C(NCC(F)c1ccc(-c2cncc(Cl)c2)cc1Cl)c1nccnc1C(F)(F)F (stereo not drawn) [Example 1-82]
mortality at 20 ppm (Cooperia curticei): 100%
pest or weed control at 20 ppm (Meloidogyne incognita): 100%
inhibition at 10 ppm [1]: ≥ 60%
mortality at 20 ppm (Haemonchus contortus): 100%

O=C(NCC(F)c1ccc(-c2ccc(F)nc2)cc1Cl)c1nccnc1C(F)(F)F (stereo not drawn) [Example 1-87]
mortality at 20 ppm (Cooperia curticei): 100%
pest or weed control at 20 ppm (Meloidogyne incognita): 100%
inhibition at 10 ppm [1]: ≥ 60%
mortality at 20 ppm (Haemonchus contortus): 100%

O=C(NCC(F)c1ccc(-c2ccc(F)nc2)cc1Cl)c1cccnc1C(F)(F)F (stereo not drawn) [Example 1-88]
mortality at 20 ppm (Cooperia curticei): 100%
pest or weed control at 20 ppm (Meloidogyne incognita): 100%
inhibition at 10 ppm [1]: ≥ 60%
mortality at 20 ppm (Haemonchus contortus): 100%

O=C(NCC(F)(F)c1ccc(-n2cc(C(F)(F)F)cn2)cc1Cl)c1cccnc1C(F)(F)F [Example 1-89]
mortality at 20 ppm (Cooperia curticei): 100%
pest or weed control at 20 ppm (Meloidogyne incognita): 100%
inhibition at 10 ppm [1]: ≥ 60%
mortality at 20 ppm (Haemonchus contortus): 100%
EC50 [2]: < 5 µg/mL

O=C(NCC(F)(F)c1ccc(-c2ccc(F)nc2)cc1Cl)c1ccccc1C(F)(F)F [Example 1-93, N-[2-[2-chloro-4-(6-fluoro-3-pyridyl)phenyl]-2,2-difluoro-ethyl]-2-(trifluoromethyl)benzamide]
mortality at 20 ppm (Cooperia curticei): 100%
pest or weed control at 20 ppm (Meloidogyne incognita): 100%
inhibition at 10 ppm [1]: ≥ 60%
mortality at 20 ppm (Haemonchus contortus): 100%
Emax at 0.8 ppm (Haemonchus contortus): 100%
Emax at 4 ppm (Haemonchus contortus): 100%
Emax at 20 ppm (Haemonchus contortus): 100%
EC50 [2]: < 5 µg/mL

CC(F)(CNC(=O)c1ccccc1Cl)c1ccc(-c2cncc(F)c2)cc1Cl (stereo not drawn) [Example 1-99]
mortality at 20 ppm (Cooperia curticei): 100%
inhibition at 10 ppm [1]: ≥ 60%
mortality at 20 ppm (Haemonchus contortus): 100%
EC50 [2]: < 5 µg/mL

CC(F)(CNC(=O)c1ccccc1Br)c1ccc(-c2cncc(F)c2)cc1Cl (stereo not drawn) [Example 1-100]
mortality at 20 ppm (Cooperia curticei): 100%
inhibition at 10 ppm [1]: ≥ 60%
mortality at 20 ppm (Haemonchus contortus): 100%
EC50 [2]: < 5 µg/mL

O=C(NCC(F)(F)c1ccc(-c2ccc(F)nc2)cc1F)c1ccccc1C(F)(F)F [Example 1-106]
mortality at 20 ppm (Cooperia curticei): 100%
pest or weed control at 20 ppm (Meloidogyne incognita): 90%
inhibition at 10 ppm [1]: ≥ 60%
mortality at 20 ppm (Haemonchus contortus): 100%
